Laboratory results: patent US6723512B2, “METHODS USING GENETIC PACKAGE DISPLAY FOR DETECTING AND IDENTIFYING PROTEIN-PROTEIN INTERACTIONS THAT FACILITATE INTERNALIZATION AND TRANSGENE EXPRESSION AND CELLS OR TISSUES COMPETENT FOR THE SAME AND METHODS FOR EVOLVING GENE DELIVERY VECTORS” (priority 1997, dated 2004)

How the values were obtained:
[1] = system: COS cells; test: Enhancement of EGF-phage transduction by heat shock and/or camptothecin; type: cell-based
Description: The effects of heat shock and another genotoxic treatment, camptothecin were tested. Camptothecin is a type I topoisomerase inhibiter that produces DNA strand breaks. Camptothecin is found to enhance transduction efficiency up to 2 fold at 0.1 μM but was inhibitory at higher concentrations (data not shown). EGF displaying phage (MG4-EGF vector) were incubated with COS cells for 24 hours at which time the cells were either not further treated, subjected to a four hour heat shock (42.5° C.), or treated with 0.1 μM camptothecin for four hours. GFP autofluorescent cells were counted at 72 hours after addition of phage.

[2] = system: COS cells; test: Transduction of COS cells by peptide display phage (second generation screen); type: cell-based; conditions: overnight incubation, GFP cells at 72 hours, FL5 versus FN5A or FN5B, FIG. 5
Description: Oligonucleotides encoding the 3 peptides are inserted into the MEGFP vector as fusions to the pIII coat protein. The resulting phage are used to transfect COS cells. Phage are added to cells and incubated overnight at 37° C. in medium with 10% fetal calf serum. The cells are washed to remove unbound phage and returned to the incubator. Transduction is assessed by counting GFP expressing autofluorescent cells at 72 hours after the addition of phage.

Row | Molecule | enhancement of targeted phage mediated transduction by camptothecin ([1]; EGF phage 24 hours, then 0.1 μM camptothecin four hours, GFP cells at 72 hours, FIG. 14) | effect of combined heat shock and camptothecin over either treatment alone ([1]; FIG. 14) | enhancement of transduction efficiency ([1]; camptothecin 0.1 μM, data not shown) | effect on transduction at higher concentrations ([1]; concentrations higher than 0.1 μM, data not shown) | transduction efficiency compared among peptide display phage [2]
1 | CC[C@@]1(O)C(=O)OCc2c1cc1n(c2=O)Cc2cc3ccccc3nc2-1 [Camptothecin] | ~2 fold | modest synergistic increase | up to 2 fold | inhibitory | 
2 | FVPDPYRKSR [FL5] |  |  |  |  | greater transduction efficiency
